From paper PMC6658998, “Pharmacological characterization of the seven human NOX isoforms and their inhibitors” (Redox Biology, 2019) come the findings set out here.

Each structure is given as a SMILES string.

The nature of one data set: in vitro. To be noted: human.
A further data set concerns the target T1, human NOX1 (Homo sapiens, UniProt Q9Y5S8).
T1 construct: expressed in transfected cells; host or cells: CHO
T1 sequence (Q9Y5S8 1-564): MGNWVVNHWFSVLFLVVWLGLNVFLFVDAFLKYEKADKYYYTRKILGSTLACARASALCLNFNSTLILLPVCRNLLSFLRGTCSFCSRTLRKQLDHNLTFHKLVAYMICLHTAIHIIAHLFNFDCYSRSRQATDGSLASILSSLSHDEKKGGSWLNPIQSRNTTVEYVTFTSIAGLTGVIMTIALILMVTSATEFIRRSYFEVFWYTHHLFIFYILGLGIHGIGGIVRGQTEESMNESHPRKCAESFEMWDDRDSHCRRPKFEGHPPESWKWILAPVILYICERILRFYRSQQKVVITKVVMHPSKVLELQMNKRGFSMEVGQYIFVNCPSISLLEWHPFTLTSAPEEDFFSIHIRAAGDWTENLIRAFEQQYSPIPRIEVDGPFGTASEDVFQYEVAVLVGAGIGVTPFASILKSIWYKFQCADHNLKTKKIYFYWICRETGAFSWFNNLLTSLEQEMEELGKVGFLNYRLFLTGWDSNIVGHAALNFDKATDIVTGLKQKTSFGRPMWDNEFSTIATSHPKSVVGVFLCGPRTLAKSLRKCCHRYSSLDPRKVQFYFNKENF
T1 sequence (P13498 1-195 partner): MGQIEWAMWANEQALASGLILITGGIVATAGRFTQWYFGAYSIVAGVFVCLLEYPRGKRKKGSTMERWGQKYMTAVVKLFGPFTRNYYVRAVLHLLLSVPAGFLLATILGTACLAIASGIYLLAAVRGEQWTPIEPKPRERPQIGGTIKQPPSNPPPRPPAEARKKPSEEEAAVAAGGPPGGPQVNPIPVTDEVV
Description: WST-1 O2•- detection in NOX1-expressing CHO cells. The data set is classed as cell-based. To be noted: WST-1, PMA 0.1 μM.

The target of another data set is T2, NOX5 (Homo sapiens, UniProt Q96PH1).
T2 construct: expressed in transfected cells
T2 sequence (Q96PH1 19-737 isoform Q96PH1-3 limits assumed): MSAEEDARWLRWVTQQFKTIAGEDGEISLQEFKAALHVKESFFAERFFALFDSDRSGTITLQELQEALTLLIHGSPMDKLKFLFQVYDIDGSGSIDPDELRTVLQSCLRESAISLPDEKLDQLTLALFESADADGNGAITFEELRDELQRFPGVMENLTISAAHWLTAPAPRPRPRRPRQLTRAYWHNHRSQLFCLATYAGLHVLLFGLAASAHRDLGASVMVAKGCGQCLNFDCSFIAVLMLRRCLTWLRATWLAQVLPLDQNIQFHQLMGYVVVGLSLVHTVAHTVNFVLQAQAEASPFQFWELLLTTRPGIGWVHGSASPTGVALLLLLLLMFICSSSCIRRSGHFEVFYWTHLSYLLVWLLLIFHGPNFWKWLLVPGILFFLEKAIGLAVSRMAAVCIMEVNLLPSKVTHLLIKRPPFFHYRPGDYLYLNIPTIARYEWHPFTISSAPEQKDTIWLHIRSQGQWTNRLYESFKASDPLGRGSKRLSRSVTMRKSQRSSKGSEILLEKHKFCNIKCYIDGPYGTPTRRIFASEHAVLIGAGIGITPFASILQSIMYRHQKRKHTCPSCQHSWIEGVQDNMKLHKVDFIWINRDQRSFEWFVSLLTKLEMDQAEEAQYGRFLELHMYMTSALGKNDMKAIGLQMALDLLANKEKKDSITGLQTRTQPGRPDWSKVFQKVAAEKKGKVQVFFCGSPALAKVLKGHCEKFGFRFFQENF
The data set can be described thus: NOX5 activity in purified membranes of HEK293 cells expressing NOX5 (WST-1, CBA). The data set is classed as biochemical. To be noted: for Inhibitory activity in NOX5 membrane assay: WST-1 / CBA, concentration not given. The method, then:
PLB-985 (40 dishes 150 cm^2) were grown in suspension and differentiated by addition of 1.25% DMSO for 72 h. HEK293 cells expressing NOX5 (40 dishes 150 cm^2) were amplified until confluence and detached using trypsin-EDTA for 5 min followed by addition of 2 vol of pre-warmed complete growth media to inactivate trypsin. Collected cells were centrifuged at 4000 ×g for 10 min. Cells were washed with PBS and centrifuged at 1500 ×g for 10 min. The supernatant was discarded and the pellet was placed at −80 °C for at least 30 min. […] Samples were sonicated two times for 25 s (level 7, Branson Sonifier 250). Cell debris were removed by centrifugation at 800 ×g for 10 min at 4 °C. The supernatant was laid on a sucrose gradient consisting of a bottom layer of 1 mL 40% sucrose and an upper layer of 1 mL 17% sucrose. Ultracentrifugation was performed at 150,000 ×g in SW60 rotor for 30 min at 4 °C. Following separation, the upper cytosolic fraction was discarded and the cloudy membrane fraction was collected. Protein concentration was determined with Bradford reagent using BSA as a standard. Small aliquots were kept at −80 °C.
NOX2 containing membranes were used at 10 μg/mL of proteins in a reaction mixture containing 90 nM recombinant RacQ61L, 45 nM recombinant p67Np47 N chimeric protein (consisting of a fusion of the N-termini of human p67phox [residues 1–210] and p47phox [residues 1–286]), 90 μM SDS, 1 μM FAD-Na2 and 1 mM WST-1 or 800 μM CBA in PBS. The reaction mixture was dispensed in 96-well plates (transparent for WST-1 absorbance, black for CBA fluorescence) at 80 μL/well and the plate was incubated for 5 min at 37 °C. The reaction was initiated by addition of 20 μL/well NADPH at final concentration 100 μM. NOX5 containing membranes were used at 20 μg/mL of proteins in a reaction mixture containing 50 mM HEPES pH 7.4, 1 mM NTA, 1 mM EDTA, 1 mM BAPTA, 1 mM MgCl2, 5.5 μM phosphatidic acid, 1 μM FAD, 700 μM CaCl2 and 1 mM WST-1 or 800 μM CBA in Milli-Q H2O. The reaction mixture was dispensed in 96-well plates (transparent for absorbance, black for fluorescence) at 80 μL/well and 20 μL/well of NADPH at final concentration of 200 μM were added to initiate the reaction.
Reported NOX inhibitors were added in 96 well plates at a single concentration as indicated to which mix containing membrane fractions and all components of the NOX2 or NOX5 membrane assays were added except NADPH. After 2–3 min incubation, 200 μM NADPH was added to start the reaction.
For orientation: Tetrazolium assays rely on reduction of a dye to a coloured formazan, in cell work by metabolically active cells.

Description for in vitro: The effect of the compounds on cell viability was obtained using the Calcein-AM assay. […] Cells suspensions were prepared in HBSS. Cells were preincubated at 50,000 cells/well with compounds for 10 min at room temperature before addition of 4 μM Calcein-AM. Then the plate was incubated at 37 °C for 1 h in the dark. Intracellular Calcein fluorescence was measured using Spectramax Paradigm (Molecular Devices) at 485 nm excitation and 520 nm emission.

The IC50 is the concentration at which inhibition is half-maximal. Take `COc1cc(C(C)=O)ccc1O` [Apocynin, apocynin]: the CC50 at 1 h in “in vitro” is > 50 µM. Moreover, the IC50 against human NOX1 was > 50 µM.
For `COc1cc(C(C)=O)cc(-c2cc(C(C)=O)cc(OC)c2O)c1O` [Diapocynin, diapocynin], in the data set “in vitro” (HEK/T-REx cells), the CC50 at 1 h was > 50 µM. The IC50 against human NOX1 was > 50 µM.
`O=c1c2ccccc2[se]n1-c1ccccc1` [Ebselen, ebselen] gave a CC50 at 1 h in the data set “in vitro” (HEK/T-REx cells) of 1.8 µM. On human NOX1, this compound had an IC50 of 31.6 µM. For the same compound, the “Inhibition of NOX5-dependent signal in membranes” value at NOX5 (compound 50 μM) was “inhibited”.
As for `c1ccc2c(c1)[I+]c1ccccc1-2` [DPI, diphenylene iodonium chloride], the CC50 at 1 h in “in vitro” was > 50 µM. Further, the “Inhibitory activity in NOX5 membrane assay” value on NOX5 is “potently inhibited”.
With `c1ccc(Cn2nnc3c(Sc4nc5ccccc5o4)ncnc32)cc1` [VAS2870, 3-benzyl-7-(2-benzoxazolyl)thio-1,2,3-triazolo[4,5-d]pyrimidine], the results for the “Inhibitory activity in NOX5 membrane assay” value on NOX5 and at NOX5 (listed as VAS280) were “no inhibitory activity” and “some level of inhibition”, respectively.
With `Cc1c2c(=O)n(-c3ccccc3Cl)[nH]c2cc(=O)n1Cc1ccccn1` [GKT136901], the CC50 at 1 h in the data set “in vitro” (HEK/T-REx cells) is > 50 µM. For the same compound, the IC50 against human NOX1 is > 50 µM.
